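1) Cells in 96-well plates. 2) Compound, 48 h, 5 concentrations. 3) Linear interpolation between surrounding doses. 4) Unreached endpoint = highest concentration. Here, GI50 denotes the concentration required for 50% inhibition of growth.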 Activity calls are given as the source filed them. Rule as the data show it: active = GI50 up to about 1.1 µM and inactive = higher.
Assays:
Assay in all cases: growth of human tumour cells (NCI), 48 h
ACHN = test system: ACHN
EKVX = test system: EKVX
LOX IMVI = test system: LOX IMVI
TK-10 = test system: TK-10
M19-MEL = test system: M19-MEL
A549 = test system: A549
MOLT-4 = test system: MOLT-4
SR = test system: SR
NCI-H522 = test system: NCI-H522
OVCAR-4 = test system: OVCAR-4
A498 = test system: A498
HL-60 = test system: HL-60
786-0 = test system: 786-0
OVCAR-3 = test system: OVCAR-3
SF-295 = test system: SF-295
DMS-273 = test system: DMS-273
UACC-257 = test system: UACC-257
IGROV-1 = test system: IGROV-1
NCI-H23 = test system: NCI-H23
HCT-15 = test system: HCT-15
SW-620 = test system: SW-620
CCRF-CEM = test system: CCRF-CEM
M14 = test system: M14
KM12 = test system: KM12
CAKI-1 = test system: CAKI-1
HOP-92 = test system: HOP-92
SK-MEL-5 = test system: SK-MEL-5
NCI-H460 = test system: NCI-H460
SNB-78 = test system: SNB-78
UO-31 = test system: UO-31
HCT-116 = test system: HCT-116
OVCAR-5 = test system: OVCAR-5
RXF 393 = test system: RXF 393
SK-OV-3 = test system: SK-OV-3
XF498 = test system: XF498
SK-MEL-2 = test system: SK-MEL-2
SNB-75 = test system: SNB-75
KM-20L2 = test system: KM-20L2
SF-539 = test system: SF-539
UACC-62 = test system: UACC-62
HOP-62 = test system: HOP-62
SNB-19 = test system: SNB-19
HOP-18 = test system: HOP-18
K562 = test system: K562
DMS-114 = test system: DMS-114
LXFL 529 = test system: LXFL 529
SK-MEL-28 = test system: SK-MEL-28
RPMI-8226 = test system: RPMI-8226
U-251 = test system: U-251
NCI-H226 = test system: NCI-H226
DLD-1 = test system: DLD-1
SN12C = test system: SN12C
HT-29 = test system: HT-29
COLO 205 = test system: COLO 205
SF-268 = test system: SF-268
Malme-3M = test system: Malme-3M
OVCAR-8 = test system: OVCAR-8
HCC 2998 = test system: HCC 2998

In the case of `CC1=CC(=O)NP(=O)(Oc2ccc(Cl)cc2)N1` (configuration not stated), the GI50 (ACHN) is reported as > 100 µM (inactive), the GI50 (EKVX) is reported as > 100 µM (inactive) and the GI50 (LOX IMVI) is reported as > 100 µM (inactive). For the same compound, the GI50 (TK-10) was > 100 µM (inactive), the GI50 (M19-MEL) was > 100 µM (inactive) and the GI50 (A549) was > 100 µM (inactive). The GI50 (MOLT-4) was > 100 µM (inactive), the GI50 (SR) was > 100 µM (inactive) and the GI50 (NCI-H522) was > 100 µM (inactive). The GI50 (OVCAR-4) was > 100 µM (inactive), the GI50 (A498) was > 100 µM (inactive) and the GI50 (HL-60) was 55.6 µM (inactive). The GI50 (786-0) was > 100 µM (inactive), the GI50 (OVCAR-3) was > 100 µM (inactive) and the GI50 (SF-295) was > 100 µM (inactive). The GI50 (DMS-273) was > 100 µM (inactive), the GI50 (UACC-257) was > 100 µM (inactive) and the GI50 (IGROV-1) was > 100 µM (inactive). The GI50 (NCI-H23) was > 100 µM (inactive), the GI50 (HCT-15) was over 100 µM and the GI50 (SW-620) was > 100 µM (inactive). For the same compound, the GI50 (CCRF-CEM) was > 100 µM (inactive), the GI50 (M14) was > 100 µM (inactive) and the GI50 (KM12) was > 100 µM (inactive). The GI50 (CAKI-1) was > 100 µM (inactive), the GI50 (HOP-92) was > 100 µM (inactive) and the GI50 (SK-MEL-5) was > 100 µM (inactive). For the same compound, the GI50 (NCI-H460) was > 100 µM (inactive), the GI50 (SNB-78) was > 100 µM (inactive) and the GI50 (UO-31) was > 100 µM (inactive). The GI50 (HCT-116) was > 100 µM (inactive), the GI50 (OVCAR-5) was > 100 µM (inactive) and the GI50 (RXF 393) was > 100 µM (inactive). The GI50 (SK-OV-3) was > 100 µM (inactive), the GI50 (XF498) was > 100 µM (inactive) and the GI50 (SK-MEL-2) was > 100 µM (inactive). For the same compound, the GI50 (SNB-75) was > 100 µM (inactive), the GI50 (KM-20L2) was > 100 µM (inactive) and the GI50 (SF-539) was > 100 µM (inactive). The GI50 (UACC-62) was > 100 µM (inactive), the GI50 (HOP-62) was > 100 µM (inactive) and the GI50 (SNB-19) was > 100 µM (inactive). For the same compound, the GI50 (HOP-18) was > 100 µM (inactive), the GI50 (K562) was 89.3 µM (inactive) and the GI50 (DMS-114) was > 100 µM (inactive). For the same compound, the GI50 (LXFL 529) was > 100 µM (inactive), the GI50 (SK-MEL-28) was > 100 µM (inactive) and the GI50 (RPMI-8226) was > 100 µM (inactive). For the same compound, the GI50 (U-251) was > 100 µM (inactive), the GI50 (NCI-H226) was > 100 µM (inactive) and the GI50 (DLD-1) was > 100 µM (inactive). The GI50 (SN12C) was > 100 µM (inactive), the GI50 (HT-29) was > 100 µM (inactive) and the GI50 (COLO 205) was > 100 µM (inactive). For the same compound, the GI50 (SF-268) was > 100 µM (inactive), the GI50 (Malme-3M) was > 100 µM (inactive) and the GI50 (OVCAR-8) was > 100 µM (inactive).
`O=C(Cc1ccccc1[N+](=O)[O-])C(CO)c1ccccc1[N+](=O)[O-]` (configuration not stated) was tested, and the GI50 (ACHN) was 38.2 µM (inactive), the GI50 (EKVX) was 70.6 µM (inactive) and the GI50 (LOX IMVI) was 91.8 µM (inactive). For the same compound, the GI50 (TK-10) was > 100 µM (inactive), the GI50 (M19-MEL) was 95.9 µM (inactive) and the GI50 (A549) was 72.1 µM (inactive). The GI50 (MOLT-4) was 35.7 µM (inactive), the GI50 (NCI-H522) was 16.8 µM (inactive) and the GI50 (OVCAR-4) was 96.4 µM (inactive). The GI50 (A498) was 80.4 µM (inactive), the GI50 (HL-60) was 67.1 µM (inactive) and the GI50 (786-0) was > 100 µM (inactive). For the same compound, the GI50 (OVCAR-3) was 66.1 µM (inactive), the GI50 (SF-295) was > 100 µM (inactive) and the GI50 (DMS-273) was > 100 µM (inactive). The GI50 (UACC-257) was 72.3 µM (inactive), the GI50 (IGROV-1) was > 100 µM (inactive) and the GI50 (NCI-H23) was 45.3 µM (inactive). For the same compound, the GI50 (HCT-15) was over 100 µM, the GI50 (SW-620) was > 100 µM (inactive) and the GI50 (CCRF-CEM) was 71.4 µM (inactive). The GI50 (M14) was > 100 µM (inactive), the GI50 (KM12) was > 100 µM (inactive) and the GI50 (CAKI-1) was 40.5 µM (inactive). For the same compound, the GI50 (HOP-92) was 23.6 µM (inactive), the GI50 (SK-MEL-5) was 31.7 µM (inactive) and the GI50 (NCI-H460) was 96.8 µM (inactive). For the same compound, the GI50 (SNB-78) was > 100 µM (inactive), the GI50 (UO-31) was 19.9 µM (inactive) and the GI50 (HCT-116) was 70.5 µM (inactive). For the same compound, the GI50 (OVCAR-5) was > 100 µM (inactive), the GI50 (RXF 393) was 92.5 µM (inactive) and the GI50 (SK-OV-3) was > 100 µM (inactive). For the same compound, the GI50 (XF498) was 20.8 µM (inactive), the GI50 (SK-MEL-2) was > 100 µM (inactive) and the GI50 (SNB-75) was 67.3 µM (inactive). For the same compound, the GI50 (KM-20L2) was > 100 µM (inactive), the GI50 (SF-539) was > 100 µM (inactive) and the GI50 (UACC-62) was 83 µM (inactive). For the same compound, the GI50 (HOP-62) was > 100 µM (inactive), the GI50 (SNB-19) was > 100 µM (inactive) and the GI50 (HOP-18) was 4.17 µM (inactive). The GI50 (K562) was 71.1 µM (inactive), the GI50 (DMS-114) was 67.1 µM (inactive) and the GI50 (LXFL 529) was 57.1 µM (inactive). For the same compound, the GI50 (SK-MEL-28) was > 100 µM (inactive), the GI50 (RPMI-8226) was 78.7 µM (inactive) and the GI50 (U-251) was > 100 µM (inactive). The GI50 (NCI-H226) was 15.6 µM (inactive), the GI50 (DLD-1) was > 100 µM (inactive) and the GI50 (SN12C) was > 100 µM (inactive). For the same compound, the GI50 (HT-29) was 26.2 µM (inactive), the GI50 (COLO 205) was > 100 µM (inactive) and the GI50 (SF-268) was 35.2 µM (inactive). For the same compound, the GI50 (Malme-3M) was 79.4 µM (inactive), the GI50 (HCC 2998) was > 100 µM (inactive) and the GI50 (OVCAR-8) was 89.5 µM (inactive).
`Cc1cc2c(=O)cc(-c3ccncc3)oc2c(C(N)=O)c1C` was tested, and the GI50 (ACHN) was > 100 µM (inactive), the GI50 (EKVX) was > 100 µM (inactive) and the GI50 (LOX IMVI) was > 100 µM (inactive). The GI50 (TK-10) was > 100 µM (inactive), the GI50 (M19-MEL) was > 100 µM (inactive) and the GI50 (A549) was > 100 µM (inactive). The GI50 (MOLT-4) was > 100 µM (inactive), the GI50 (SR) was > 100 µM (inactive) and the GI50 (HL-60) was > 100 µM (inactive). The GI50 (786-0) was > 100 µM (inactive), the GI50 (OVCAR-3) was > 100 µM (inactive) and the GI50 (SF-295) was > 100 µM (inactive). The GI50 (DMS-273) was > 100 µM (inactive), the GI50 (UACC-257) was > 100 µM (inactive) and the GI50 (IGROV-1) was > 100 µM (inactive). The GI50 (NCI-H23) was > 100 µM (inactive), the GI50 (HCT-15) was over 100 µM and the GI50 (SW-620) was > 100 µM (inactive). The GI50 (CCRF-CEM) was > 100 µM (inactive), the GI50 (HOP-92) was > 100 µM (inactive) and the GI50 (NCI-H460) was 87.9 µM (inactive). For the same compound, the GI50 (SNB-78) was > 100 µM (inactive), the GI50 (UO-31) was > 100 µM (inactive) and the GI50 (HCT-116) was 83.4 µM (inactive). The GI50 (OVCAR-5) was > 100 µM (inactive), the GI50 (RXF 393) was > 100 µM (inactive) and the GI50 (SK-OV-3) was > 100 µM (inactive). For the same compound, the GI50 (XF498) was > 100 µM (inactive), the GI50 (SK-MEL-2) was > 100 µM (inactive) and the GI50 (SNB-75) was > 100 µM (inactive). The GI50 (KM-20L2) was > 100 µM (inactive), the GI50 (SF-539) was > 100 µM (inactive) and the GI50 (UACC-62) was 99.8 µM (inactive). The GI50 (HOP-62) was > 100 µM (inactive), the GI50 (SNB-19) was > 100 µM (inactive) and the GI50 (HOP-18) was > 100 µM (inactive). For the same compound, the GI50 (LXFL 529) was > 100 µM (inactive), the GI50 (SK-MEL-28) was > 100 µM (inactive) and the GI50 (RPMI-8226) was > 100 µM (inactive). For the same compound, the GI50 (U-251) was > 100 µM (inactive), the GI50 (NCI-H226) was > 100 µM (inactive) and the GI50 (SN12C) was > 100 µM (inactive). For the same compound, the GI50 (HT-29) was > 100 µM (inactive), the GI50 (COLO 205) was > 100 µM (inactive) and the GI50 (SF-268) was > 100 µM (inactive). The GI50 (Malme-3M) was > 100 µM (inactive), the GI50 (HCC 2998) was > 100 µM (inactive) and the GI50 (OVCAR-8) was > 100 µM (inactive).

Source: ChEMBL document CHEMBL1201862, “PubChem BioAssay data set” (2004)
